Measurements published in ChEMBL document CHEMBL3822442, “Synthesis and Pharmacological Characterization of Novel Glucagon-like Peptide-2 (GLP-2) Analogues with Low Systemic Clearance” (J Med Chem, 2016).
The source made the active and inactive calls. The calls are words filed in the database; no cut-off is given here. Non-standard residues stand in square brackets, D forms with d. Residues, ends and D or L forms follow the SMILES beside them. Nle = CCCC[C@H](N)C(=O)O

Experiments:
[1] = target: T1, Glucagon-like peptide 1 receptor (Homo sapiens, UniProt P43220); experiment: Agonist activity at human GLP1R expressed in HEK293 cells after 5 hrs by luciferase reporter gene assay; assay type: cell-based
[2] = target: T2, Glucagon-like peptide 2 receptor (Homo sapiens, UniProt O95838); experiment: Agonist activity at human GLP2R expressed in HEK293 cells after 5 hrs by luciferase reporter gene assay; assay type: cell-based
T2 sequence (O95838 whole entry): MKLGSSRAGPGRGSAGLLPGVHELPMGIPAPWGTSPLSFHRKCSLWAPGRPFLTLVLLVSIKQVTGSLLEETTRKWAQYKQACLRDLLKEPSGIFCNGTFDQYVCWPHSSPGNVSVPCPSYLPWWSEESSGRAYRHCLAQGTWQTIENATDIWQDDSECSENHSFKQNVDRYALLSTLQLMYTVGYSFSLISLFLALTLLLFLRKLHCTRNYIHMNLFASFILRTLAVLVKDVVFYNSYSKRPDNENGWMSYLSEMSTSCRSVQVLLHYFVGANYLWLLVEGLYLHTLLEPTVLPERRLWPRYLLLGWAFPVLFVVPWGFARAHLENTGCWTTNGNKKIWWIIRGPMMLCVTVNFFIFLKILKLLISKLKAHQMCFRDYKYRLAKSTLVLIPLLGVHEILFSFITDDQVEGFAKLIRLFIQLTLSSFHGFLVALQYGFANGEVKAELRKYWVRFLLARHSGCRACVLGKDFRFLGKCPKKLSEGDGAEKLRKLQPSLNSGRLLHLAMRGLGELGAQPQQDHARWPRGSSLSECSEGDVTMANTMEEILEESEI

[3] = Systemic clearance in Sprague-Dawley rat at 0.2 mg/kg, iv through cassette dosing measured up to 300 mins by LC/MS/MS analysis; assay type: ADME, organism-based; settings: in vivo
[4] = target: T3, Glucagon-like peptide 2 receptor (Homo sapiens) (UniProt O95838); experiment: Potency index, ratio of compound EC50 to compound 2 EC50 for human GLP2R expressed in HEK293 cells; assay type: cell-based
T3 sequence (whole entry): T2 sequence (O95838 whole entry)

HEK293 = experiment: Selectivity ratio of EC50 for human GLP1R expressed in HEK293 cells to EC50 for human GLP2R expressed in HEK293; assay type: cell-based
[5] = target: T1, Glucagon-like peptide 1 receptor; experiment: Agonist activity at human GLP1R expressed in HEK293 cells at 30 nM after 5 hrs by luciferase reporter gene assay; assay type: cell-based
[6] = target: Glucagon receptor (Homo sapiens) (UniProt P47871); experiment: Agonist activity at human GCGR expressed in HEK293 cells after 5 hrs by luciferase reporter gene assay; assay type: cell-based
Chain of Glucagon receptor (Homo sapiens) (P47871 whole entry): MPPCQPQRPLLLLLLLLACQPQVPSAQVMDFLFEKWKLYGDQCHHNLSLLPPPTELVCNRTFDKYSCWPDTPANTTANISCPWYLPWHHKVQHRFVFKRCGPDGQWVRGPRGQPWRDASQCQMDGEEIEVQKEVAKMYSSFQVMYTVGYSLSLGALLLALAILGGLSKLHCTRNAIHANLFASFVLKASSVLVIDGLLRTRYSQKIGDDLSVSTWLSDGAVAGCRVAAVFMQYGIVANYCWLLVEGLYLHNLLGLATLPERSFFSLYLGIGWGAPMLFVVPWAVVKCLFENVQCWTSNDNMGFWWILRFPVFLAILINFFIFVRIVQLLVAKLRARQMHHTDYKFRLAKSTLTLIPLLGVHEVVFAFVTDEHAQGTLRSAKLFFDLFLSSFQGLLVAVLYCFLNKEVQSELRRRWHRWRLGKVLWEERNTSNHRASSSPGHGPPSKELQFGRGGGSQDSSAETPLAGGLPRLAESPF

T1 sequence (P43220 whole entry): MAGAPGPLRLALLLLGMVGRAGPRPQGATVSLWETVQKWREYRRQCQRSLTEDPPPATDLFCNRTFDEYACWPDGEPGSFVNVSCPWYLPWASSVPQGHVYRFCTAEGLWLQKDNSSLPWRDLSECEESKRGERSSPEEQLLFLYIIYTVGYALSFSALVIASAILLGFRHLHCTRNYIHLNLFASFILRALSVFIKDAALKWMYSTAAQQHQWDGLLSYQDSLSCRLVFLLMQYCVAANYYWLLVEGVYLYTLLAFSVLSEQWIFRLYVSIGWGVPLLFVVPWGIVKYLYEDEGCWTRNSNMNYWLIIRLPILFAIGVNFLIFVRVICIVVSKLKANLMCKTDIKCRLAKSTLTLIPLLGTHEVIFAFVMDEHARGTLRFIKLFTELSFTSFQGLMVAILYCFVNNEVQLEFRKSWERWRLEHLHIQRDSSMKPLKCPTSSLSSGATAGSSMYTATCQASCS

| Compound | EC50 [1] [nM] | EC50 [2] [nM] | clearance [3] [mL/min/kg] | Ratio EC50 [4] | Efficacy [5] [%] | Activity [6] | Ratio EC50 (HEK293) |
| --- | --- | --- | --- | --- | --- | --- | --- |
| CC[C@H](C)[C@H](NC(=O)[C@H](Cc1ccccc1)NC(=O)[C@H](CC(=O)O)NC(=O)[C@H](CCCNC(=N)N)NC(=O)[C@H](C)NC(=O)[C@H](C)NC(=O)[C@H](CC(C)C)NC(=O)[C@H](CC(N)=O)NC(=O)[C@H](CC(=O)O)NC(=O)[C@H](CC(C)C)NC(=O)[C@@H](NC(=O)[C@@H](NC(=O)[C@H](CC(N)=O)NC(=O)[C@H](CCSC)NC(=O)[C@H](CCC(=O)O)NC(=O)[C@H](CC(=O)O)NC(=O)[C@H](CO)NC(=O)[C@H](Cc1ccccc1)NC(=O)[C@H](CO)NC(=O)CNC(=O)[C@H](CC(=O)O)NC(=O)[C@H](C)NC(=O)[C@@H](N)Cc1cnc[nH]1)[C@@H](C)O)[C@@H](C)CC)C(=O)N[C@@H](CC(N)=O)C(=O)N[C@@H](Cc1c[nH]c2ccccc12)C(=O)N[C@@H](CC(C)C)C(=O)N[C@H](C(=O)N[C@@H](CCC(N)=O)C(=O)N[C@H](C(=O)N[C@@H](CCCCN)C(=O)N[C@H](C(=O)N[C@H](C(=O)N[C@@H](CC(=O)O)C(=O)O)[C@@H](C)O)[C@@H](C)CC)[C@@H](C)O)[C@@H](C)CC |  |  |  |  | 71 |  |  |
| CCCCC(NC(=O)[C@H](CCC(=O)O)NC(=O)[C@H](CC(=O)O)NC(=O)[C@H](CO)NC(=O)[C@H](Cc1ccccc1)NC(=O)[C@H](CO)NC(=O)CNC(=O)[C@H](CC(=O)O)NC(=O)CNC(=O)[C@@H](N)Cc1cnc[nH]1)C(=O)N[C@@H](CC(N)=O)C(=O)N[C@H](C(=O)N[C@@H](C(=O)N[C@@H](CC(C)C)C(=O)N[C@@H](CC(=O)O)C(=O)N[C@@H](CC(N)=O)C(=O)N[C@@H](CC(C)C)C(=O)N[C@@H](C)C(=O)N[C@@H](C)C(=O)N[C@@H](CCCNC(=N)N)C(=O)N[C@@H](CC(=O)O)C(=O)N[C@@H](Cc1ccccc1)C(=O)N[C@H](C(=O)N[C@@H](CC(N)=O)C(=O)N[C@@H](Cc1c[nH]c2ccccc12)C(=O)N[C@@H](CC(C)C)C(=O)N[C@H](C(=O)N[C@@H](CCC(N)=O)C(=O)N[C@H](C(=O)N[C@@H](CCCCN)C(N)=O)[C@@H](C)O)[C@@H](C)CC)[C@@H](C)CC)[C@H](C)CC)[C@@H](C)O (stereo partly specified) | > 1000 | 0.35 |  | 1.6 |  | inactive | > 2800 |
| CCCC[C@H](NC(=O)[C@H](CCC(=O)O)NC(=O)[C@H](CC(=O)O)NC(=O)[C@H](CO)NC(=O)[C@H](Cc1ccccc1)NC(=O)[C@H](CO)NC(=O)[C@@H](C)NC(=O)[C@H](CC(=O)O)NC(=O)CNC(=O)[C@@H](N)Cc1cnc[nH]1)C(=O)N[C@@H](CC(N)=O)C(=O)N[C@H](C(=O)N[C@H](C(=O)N[C@@H](CC(C)C)C(=O)N[C@@H](CC(=O)O)C(=O)N[C@@H](CC(N)=O)C(=O)N[C@@H](CC(C)C)C(=O)N[C@@H](C)C(=O)N[C@@H](C)C(=O)N[C@@H](CCCNC(=N)N)C(=O)N[C@@H](CC(=O)O)C(=O)N[C@@H](Cc1ccccc1)C(=O)N[C@H](C(=O)N[C@@H](CC(N)=O)C(=O)N[C@@H](Cc1c[nH]c2ccccc12)C(=O)N[C@@H](CC(C)C)C(=O)N[C@H](C(=O)N[C@@H](CCC(N)=O)C(=O)N[C@H](C(=O)N[C@@H](CCCCN)C(N)=O)[C@@H](C)O)[C@@H](C)CC)[C@@H](C)CC)[C@@H](C)CC)[C@@H](C)O (H-HGD[dA]SFSDE[Nle]NTILDNLAARDFINWLIQTK-NH2) | > 1000 | 0.2 |  | 0.91 |  | inactive | > 5000 |
| CCCCC(NC(=O)[C@H](CCC(=O)O)NC(=O)[C@H](CC(=O)O)NC(=O)[C@H](CO)NC(=O)[C@H](Cc1ccccc1)NC(=O)[C@H](CO)NC(=O)CNC(=O)[C@H](CC(=O)O)NC(=O)CNC(=O)[C@@H](N)Cc1cnc[nH]1)C(=O)N[C@@H](CC(N)=O)C(=O)N[C@H](C(=O)N[C@H](C(=O)N[C@@H](CC(C)C)C(=O)N[C@@H](CC(=O)O)C(=O)N[C@@H](CC(N)=O)C(=O)N[C@@H](CC(C)C)C(=O)N[C@@H](C)C(=O)N[C@H](C)C(=O)N[C@@H](CCCNC(=N)N)C(=O)N[C@@H](CC(=O)O)C(=O)N[C@@H](Cc1ccccc1)C(=O)N[C@H](C(=O)N[C@@H](CC(N)=O)C(=O)N[C@@H](Cc1c[nH]c2ccccc12)C(=O)N[C@@H](CC(C)C)C(=O)N[C@H](C(=O)N[C@@H](CCC(N)=O)C(=O)N[C@H](C(=O)N[C@@H](CCCCN)C(N)=O)[C@@H](C)O)[C@@H](C)CC)[C@@H](C)CC)[C@@H](C)CC)[C@@H](C)O (stereo partly specified) | > 1000 | 14 |  | 64 |  | inactive | > 71 |
| CCCCC(NC(=O)[C@H](CCC(=O)O)NC(=O)[C@H](CC(=O)O)NC(=O)[C@H](CO)NC(=O)[C@H](Cc1ccccc1)NC(=O)[C@H](CO)NC(=O)CNC(=O)[C@H](CC(=O)O)NC(=O)CNC(=O)[C@@H](N)Cc1cnc[nH]1)C(=O)N[C@@H](CC(N)=O)C(=O)N[C@H](C(=O)N[C@H](C(=O)N[C@@H](CC(C)C)C(=O)N[C@@H](CC(=O)O)C(=O)N[C@@H](CC(N)=O)C(=O)N[C@@H](CC(C)C)C(=O)N[C@@H](C)C(=O)N[C@@H](C)C(=O)N[C@@H](CCCNC(=N)N)C(=O)N[C@@H](CC(=O)O)C(=O)N[C@@H](Cc1ccccc1)C(=O)N[C@H](C(=O)N[C@@H](CC(N)=O)C(=O)N[C@@H](Cc1c[nH]c2ccccc12)C(=O)N[C@@H](CC(C)C)C(=O)N[C@H](C(=O)N[C@@H](CCC(N)=O)C(=O)N[C@H](C(=O)N[C@H](CCCCN)C(N)=O)[C@@H](C)O)[C@@H](C)CC)[C@@H](C)CC)[C@@H](C)CC)[C@@H](C)O (stereo partly specified) | > 1000 | 0.38 |  | 1.7 |  | inactive | > 2600 |

Further lines, with some results ahead:

| EC50 [1] [nM] | EC50 [2] [nM] | clearance [3] [mL/min/kg] | Ratio EC50 [4] | Efficacy [5] [%] | Activity [6] | Compound | Ratio EC50 (HEK293) |
| --- | --- | --- | --- | --- | --- | --- | --- |
| > 1000 | 0.22 | 20 | 2.4 |  |  | H-HGDGSFSDEMNTILDNLAARDFINWLIQTK-NH2 | > 4500 |
| > 1000 | 8.1 |  | 37 |  | inactive | CCCCC(NC(=O)[C@H](CCC(=O)O)NC(=O)[C@H](CC(=O)O)NC(=O)[C@H](CO)NC(=O)[C@H](Cc1ccccc1)NC(=O)[C@@H](CO)NC(=O)CNC(=O)[C@H](CC(=O)O)NC(=O)CNC(=O)[C@@H](N)Cc1cnc[nH]1)C(=O)N[C@@H](CC(N)=O)C(=O)N[C@H](C(=O)N[C@H](C(=O)N[C@@H](CC(C)C)C(=O)N[C@@H](CC(=O)O)C(=O)N[C@@H](CC(N)=O)C(=O)N[C@@H](CC(C)C)C(=O)N[C@@H](C)C(=O)N[C@@H](C)C(=O)N[C@@H](CCCNC(=N)N)C(=O)N[C@@H](CC(=O)O)C(=O)N[C@@H](Cc1ccccc1)C(=O)N[C@H](C(=O)N[C@@H](CC(N)=O)C(=O)N[C@@H](Cc1c[nH]c2ccccc12)C(=O)N[C@@H](CC(C)C)C(=O)N[C@H](C(=O)N[C@@H](CCC(N)=O)C(=O)N[C@H](C(=O)N[C@@H](CCCCN)C(N)=O)[C@@H](C)O)[C@@H](C)CC)[C@@H](C)CC)[C@@H](C)CC)[C@@H](C)O (stereo partly specified) | > 120 |
| > 1000 | 2.6 |  | 12 |  | inactive | CCCCC(NC(=O)[C@H](CCC(=O)O)NC(=O)[C@H](CC(=O)O)NC(=O)[C@H](CO)NC(=O)[C@H](Cc1ccccc1)NC(=O)[C@H](CO)NC(=O)CNC(=O)[C@H](CC(=O)O)NC(=O)CNC(=O)[C@@H](N)Cc1cnc[nH]1)C(=O)N[C@@H](CC(N)=O)C(=O)N[C@H](C(=O)N[C@H](C(=O)N[C@@H](CC(C)C)C(=O)N[C@@H](CC(=O)O)C(=O)N[C@@H](CC(N)=O)C(=O)N[C@H](CC(C)C)C(=O)N[C@@H](C)C(=O)N[C@@H](C)C(=O)N[C@@H](CCCNC(=N)N)C(=O)N[C@@H](CC(=O)O)C(=O)N[C@@H](Cc1ccccc1)C(=O)N[C@H](C(=O)N[C@@H](CC(N)=O)C(=O)N[C@@H](Cc1c[nH]c2ccccc12)C(=O)N[C@@H](CC(C)C)C(=O)N[C@H](C(=O)N[C@@H](CCC(N)=O)C(=O)N[C@H](C(=O)N[C@@H](CCCCN)C(N)=O)[C@@H](C)O)[C@@H](C)CC)[C@@H](C)CC)[C@@H](C)CC)[C@@H](C)O (stereo partly specified) | > 380 |
| > 1000 | 0.16 |  | 0.73 |  | inactive | CCCCC(NC(=O)[C@H](CCC(=O)O)NC(=O)[C@H](CC(=O)O)NC(=O)[C@H](CO)NC(=O)[C@H](Cc1ccccc1)NC(=O)[C@H](CO)NC(=O)CNC(=O)[C@H](CC(=O)O)NC(=O)CNC(=O)[C@@H](N)Cc1cnc[nH]1)C(=O)N[C@H](CC(N)=O)C(=O)N[C@H](C(=O)N[C@H](C(=O)N[C@@H](CC(C)C)C(=O)N[C@@H](CC(=O)O)C(=O)N[C@@H](CC(N)=O)C(=O)N[C@@H](CC(C)C)C(=O)N[C@@H](C)C(=O)N[C@@H](C)C(=O)N[C@@H](CCCNC(=N)N)C(=O)N[C@@H](CC(=O)O)C(=O)N[C@@H](Cc1ccccc1)C(=O)N[C@H](C(=O)N[C@@H](CC(N)=O)C(=O)N[C@@H](Cc1c[nH]c2ccccc12)C(=O)N[C@@H](CC(C)C)C(=O)N[C@H](C(=O)N[C@@H](CCC(N)=O)C(=O)N[C@H](C(=O)N[C@@H](CCCCN)C(N)=O)[C@@H](C)O)[C@@H](C)CC)[C@@H](C)CC)[C@@H](C)CC)[C@@H](C)O (stereo partly specified) | > 6200 |
